Read-outs that look alike come from different tables or passages of the source. Blank lines part the entries; values can stand above or below the molecule they belong to.
Legend:
CPC-AH B [1] = target: T1, CPC-AH B (Hapsidospora chrysogena, UniProt A0A086SV17); assay: In-vitro deacetylation by enzymatic extracts from E. coli JM109(DE3)/pT7B2.2 (processed CPC-AH B); assay type: biochemical, Acremonium chrysogenum; details: substrate 20 mM, 60 minutes at 37° C.
extracellular CPC-AH = details: cited from earlier work
CPC-AH B [2] = target: T1, CPC-AH B; assay: Effect of metals and inhibitors on CPC-AH B activity (HPLC test of DAC formation from CPC); assay type: biochemical, Acremonium chrysogenum
[3] = final concentration of the ions 1 mM
[4] = metals 1 mM, pre-incubated 15 minutes at 4° C., NONE = 100

T1 sequence (A0A086SV17 107-383): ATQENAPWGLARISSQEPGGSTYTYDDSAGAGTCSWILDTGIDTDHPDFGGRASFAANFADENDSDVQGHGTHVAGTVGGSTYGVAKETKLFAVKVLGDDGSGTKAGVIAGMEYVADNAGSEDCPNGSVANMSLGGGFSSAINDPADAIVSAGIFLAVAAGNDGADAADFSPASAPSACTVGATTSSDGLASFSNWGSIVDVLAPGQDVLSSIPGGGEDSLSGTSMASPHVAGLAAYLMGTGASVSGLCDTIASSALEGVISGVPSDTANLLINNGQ

Molecule: CC(=O)OCC1=C(C(=O)O)N2C(=O)[C@@H](N)[C@H]2SC1 [7-ACA, 7-aminocephalosporanic acid]
- Deacetylation of substrate (CPC-AH B [1]): detected appearance of the corresponding deacetylated derivatives

Molecule: CC(=O)OCC1=C(C(=O)O)N2C(=O)[C@@H](NC(=O)CCC[C@@H](N)C(=O)O)[C@H]2SC1 [CPC, cephalosporin C]
- Deacetylation of substrate (CPC-AH B [1]): detected appearance of the corresponding deacetylated derivatives
- Km (extracellular CPC-AH): 20 mM

- CPC-AH activity (%) (CPC-AH B [2]; inhibitor 0.1 mM, NONE = 100): 91%
- CPC-AH activity (%) (CPC-AH B [2]; inhibitor 1 mM, NONE = 100): 87%
- CPC-AH activity (%) (CPC-AH B [2]; inhibitor 10 mM, NONE = 100): 86%
Molecule: O=C(O)CN(CCN(CC(=O)O)CC(=O)O)CC(=O)O [EDTA]

- CPC-AH activity (%) (CPC-AH B [2]; [4]): 49%
Molecule: O=S(=O)([O-])[O-].[Fe+2] [FeSO4]
- Effect of metal ion on CPC-AH B activity (CPC-AH B [2]; [3]): inhibit activity to a greater or lesser extent

- CPC-AH activity (%) (CPC-AH B [2]; [4]): 77%
Molecule: O=C([O-])[O-].[K+].[K+] [K2CO3]

- Effect of metal ion on CPC-AH B activity (CPC-AH B [2]; [3]): stimulating effect
- CPC-AH activity (%) (CPC-AH B [2]; [4]): 141%
Molecule: O=S(=O)([O-])[O-].[Mg+2] [MgSO4]

- Effect of metal ion on CPC-AH B activity (CPC-AH B [2]; [3]): stimulating effect
- CPC-AH activity (%) (CPC-AH B [2]; [4]): 140%
Molecule: O=S(=O)([O-])[O-].[Mn+2] [MnSO4]

Molecule: [Cl-].[Na+] [NaCl]
- CPC-AH activity (%) (CPC-AH B [2]): 94%

Molecule: O=S(=O)(F)Cc1ccccc1 [PMSF, phenylmethylsulphonyl fluoride]
- Effect of inhibitor on CPC-AH B activity (CPC-AH B [2]): strong inhibitory effect

- CPC-AH activity (%) (CPC-AH B [2]; [4]): 60%
Molecule: O=S(=O)([O-])[O-].[Zn+2] [ZnSO4]
- Effect of metal ion on CPC-AH B activity (CPC-AH B [2]; [3]): inhibit activity to a greater or lesser extent

Molecule: AgNO3
- CPC-AH activity (%) (CPC-AH B [2]): 60%
- Effect of metal ion on CPC-AH B activity (CPC-AH B [2]): inhibit activity to a greater or lesser extent

Molecule: CaCl2
- CPC-AH activity (%) (CPC-AH B [2]): 147%
- Effect of metal ion on CPC-AH B activity (CPC-AH B [2]): stimulating effect

Molecule: CoSO4
- CPC-AH activity (%) (CPC-AH B [2]): 80%

Molecule: CuSO4
- CPC-AH activity (%) (CPC-AH B [2]): 64%
- Effect of metal ion on CPC-AH B activity (CPC-AH B [2]): inhibit activity to a greater or lesser extent
